Reference: ChEMBL document CHEMBL5360545, “Multitargeted drug design strategy for discovery of short-peptide-based HIV-1 entry inhibitors with high potency” (Eur J Med Chem, 2023)
Activity calls are given as the source filed them. The calls are words filed in the database; no cut-off is given here. Side chains are listed from the residue outwards. Peptide text beside a SMILES is read from it. * marks the point of attachment. PEG24 = NCCOCCOCCOCCOCCOCCOCCOCCOCCOCCOCCOCCOCCOCCOCCOCCOCCOCCOCCOCCOCCOCCOCCOCCOCCC(=O)O; X2 = CC(=O)N1CCC(C(=O)N(CCCN2C3CCC2CC(NS(=O)(=O)c2ccc(C(=O)*)cc2)C3)c2ccc(C)c(Cl)c2)CC1; X1 = CC(=O)N1CCC(C(=O)N(CCCN2CCC(Cc3ccc(C(=O)*)cc3)CC2)c2ccc(C)c(Cl)c2)CC1; PEG12 = NCCOCCOCCOCCOCCOCCOCCOCCOCCOCCOCCOCCOCCC(=O)O

Tests used:
[1] = system: Human immunodeficiency virus 1; assay: Antiviral activity against HIV-1 clinical isolate 97 TH-NP1525 infected in human CEMx174 5.25M7 cells assessed as reduction in p24 antigen level measured after 4 days by ELISA; type: functional, organism-based; details: Human immunodeficiency virus 1, clinical isolate 97 TH-NP1525, CEMx174 5.25M7, 96 h
[2] = system: Human immunodeficiency virus 1; assay: Antiviral activity against HIV-1 Bal-R5 infected in human CEMx174 5.25M7 cells assessed as reduction in p24 antigen level measured after 4 days by ELISA; type: functional, organism-based; details: Human immunodeficiency virus 1, Bal-R5, CEMx174 5.25M7, 96 h
[3] = system: Human immunodeficiency virus 1; assay: Antiviral activity against HIV-1 clinical isolate R5-91US-4 infected in human CEMx174 5.25M7 cells assessed as reduction in p24 antigen level measured after 4 days by ELISA; type: functional, organism-based; details: Human immunodeficiency virus 1, clinical isolate R5-91US-4, CEMx174 5.25M7, 96 h
[4] = system: Human immunodeficiency virus 1; assay: Antiviral activity against HIV-1 clinical isolate R5-J32228M4 infected in human CEMx174 5.25M7 cells assessed as reduction in p24 antigen level measured after 4 days by ELISA; type: functional, organism-based; details: Human immunodeficiency virus 1, clinical isolate R5-J32228M4, CEMx174 5.25M7, 96 h
[5] = system: Human immunodeficiency virus 1; assay: Antiviral activity against HIV-1 clinical isolate X4-89BZ167 infected in human CEMx174 5.25M7 cells assessed as reduction in p24 antigen level measured after 4 days by ELISA; type: functional, organism-based; details: Human immunodeficiency virus 1, clinical isolate X4-89BZ167, CEMx174 5.25M7, 96 h
[6] = molecular target: C-C chemokine receptor type 5 (Homo sapiens, UniProt P51681); assay: Antagonist activity at CCR5 (unknown origin) expressed in HEK293 cells co-expressing Galpha16 assessed as intracellular calcium change incubated for 60 mins by Fluo-4 AM calcium flux based FLIPR assay; type: functional, cell-based
C-C chemokine receptor type 5, sequence (P51681 whole entry): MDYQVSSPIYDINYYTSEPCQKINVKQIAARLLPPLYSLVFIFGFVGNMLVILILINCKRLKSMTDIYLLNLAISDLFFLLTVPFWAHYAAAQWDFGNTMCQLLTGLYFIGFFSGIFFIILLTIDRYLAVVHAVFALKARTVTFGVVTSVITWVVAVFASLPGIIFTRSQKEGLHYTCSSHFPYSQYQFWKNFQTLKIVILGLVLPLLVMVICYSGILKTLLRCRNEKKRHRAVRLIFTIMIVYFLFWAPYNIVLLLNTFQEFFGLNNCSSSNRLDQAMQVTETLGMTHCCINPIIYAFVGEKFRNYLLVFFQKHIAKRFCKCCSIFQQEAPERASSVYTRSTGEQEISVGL

[7] = system: Human immunodeficiency virus 1; assay: Antiviral activity against HIV-1 clinical isolate X4-92UG024 infected in human CEMx174 5.25M7 cells assessed as reduction in p24 antigen level measured after 4 days by ELISA; type: functional, organism-based; details: Human immunodeficiency virus 1, clinical isolate X4-92UG024, CEMx174 5.25M7, 96 h
[8] = molecular target: Envelope glycoprotein gp160 (Human immunodeficiency virus 1) (UniProt Q72502); assay: Binding affinity to HIV1 GP41 using GP41 NHR derived N39 peptide assessed as binding constant by isothermal titration calorimetry
[9] = molecular target: Envelope glycoprotein gp160 (Human immunodeficiency virus 1) (UniProt Q72502); assay: Binding affinity to HIV1 GP41 using GP41 NHR derived N39 peptide assessed as change in enthalpy by isothermal titration calorimetry
[10] = Proteolytic stability in rat plasma assessed as parent compound remaining incubated for 4 hrs by RP-UHPLC analysis; type: ADME, cell-free; details: read-out: Stability
[11] = molecular target: Envelope glycoprotein gp160 (Human immunodeficiency virus 1) (UniProt Q72502); assay: Binding affinity to HIV1 GP41 using GP41 NHR derived N39 peptide assessed as melting temperature incubated for 30 mins by circular dichroism spectroscopy
[12] = molecular target: Envelope glycoprotein gp160 (Human immunodeficiency virus 1) (UniProt Q72502); assay: Binding affinity to HIV1 GP41 using GP41 NHR derived N39 peptide assessed as change in entropy by isothermal titration calorimetry
[13] = Proteolytic stability in rat liver assessed as parent compound remaining incubated for 4 hrs by RP-UHPLC analysis; type: ADME, tissue-based; details: read-out: Stability
[14] = Proteolytic stability in rat kidney incubated upto 240 mins by RP-UHPLC analysis; type: ADME, tissue-based; details: 4 h
[15] = molecular target: Envelope glycoprotein gp160 (Human immunodeficiency virus 1) (UniProt Q72502); assay: Binding affinity to HIV1 GP41 using GP41 NHR derived N39 peptide at 100 uM incubated for 30 mins by PAGE gel electrophoresis analysis

Row | Compound | EC50 [1] [nM] | EC50 [2] [nM] | EC50 [3] [nM] | EC50 [4] [nM] | EC50 [5] [nM] | IC50 [6] [nM] | EC50 [7] [nM] | K [8] | deltaH [9] | remaining at 4 h [10] [%] | Tm [11] [°C] | deltaS [12] [cal/mol/deg] | remaining at 4 h [13] [%] | Stability [14] | Activity [15]
1 | CC(=O)N1CCC(C(=O)N(CCCN2CCC(Cc3ccc(C(N)=O)cc3)CC2)c2ccc(C)c(Cl)c2)CC1 | > 300 | 9.03 | 12.1 | 161 | > 300 | 0.83 | > 300 | – | – | – | – | – | – | – | –
2 | CC[C@H](C)[C@H](NC(C)=O)C(=O)N[C@@H](CCC(=O)O)C(=O)N[C@@H](CCC(=O)O)C(=O)N[C@@H](CC(C)C)C(=O)N[C@H](C(=O)N[C@@H](CCCNC(=N)N)C(=O)N[C@@H](C)C(=O)N[C@@H](C)C(=O)N[C@@H](CCC(N)=O)C(=O)N[C@@H](CCC(=O)O)C(=O)N[C@@H](CCC(N)=O)C(=O)N[C@@H](CCC(N)=O)C(=O)N[C@@H](CCCNC(=N)N)C(=O)N[C@@H](CCCCN)C(=O)N[C@@H](CC(N)=O)C(=O)N[C@@H](CCC(=O)O)C(=O)N[C@@H](CCC(=O)O)C(=O)N[C@@H](C)C(=O)N[C@@H](CC(C)C)C(=O)N[C@@H](CCCNC(=N)N)C(=O)N[C@@H](CCC(=O)O)C(=O)N[C@@H](CC(C)C)C(=O)N[C@@H](CCCCNC(=O)CCOCCOCCOCCOCCOCCOCCOCCOCCOCCOCCOCCOCCNC(=O)c1ccc(CC2CCN(CCCN(C(=O)C3CCN(C(C)=O)CC3)c3ccc(C)c(Cl)c3)CC2)cc1)C(N)=O)[C@@H](C)CC (Ac-IEELIRAAQEQQRKNEEALRELK([PEG12-X1])-NH2) | 0.33 | 0.09 | 1.79 | 16.2 | 2.75 | 19.2 | 1.21 | 2.1 10^5/M | -1.4 10^4cal/mol | 100 | 56 | -23.2 | > 72 | Stable | Active
3 | CC[C@H](C)[C@H](NC(C)=O)C(=O)N[C@@H](CCC(=O)O)C(=O)N[C@@H](CCC(=O)O)C(=O)N[C@@H](CC(C)C)C(=O)N[C@H](C(=O)N[C@@H](CCCNC(=N)N)C(=O)N[C@@H](C)C(=O)N[C@@H](C)C(=O)N[C@@H](CCC(N)=O)C(=O)N[C@@H](CCC(=O)O)C(=O)N[C@@H](CCC(N)=O)C(=O)N[C@@H](CCC(N)=O)C(=O)N[C@@H](CCCNC(=N)N)C(=O)N[C@@H](CCCCN)C(=O)N[C@@H](CC(N)=O)C(=O)N[C@@H](CCC(=O)O)C(=O)N[C@@H](CCC(=O)O)C(=O)N[C@@H](C)C(=O)N[C@@H](CC(C)C)C(=O)N[C@@H](CCCNC(=N)N)C(=O)N[C@@H](CCC(=O)O)C(=O)N[C@@H](CC(C)C)C(=O)N[C@@H](CCCCNC(=O)CCOCCOCCOCCOCCOCCOCCOCCOCCOCCOCCOCCOCCNC(=O)c1ccc(S(=O)(=O)NC2CC3CCC(C2)N3CCCN(C(=O)C2CCN(C(C)=O)CC2)c2ccc(C)c(Cl)c2)cc1)C(N)=O)[C@@H](C)CC (some centres not stated) (Ac-IEELIRAAQEQQRKNEEALRELK([PEG12-X2])-NH2) | 0.99 | 0.16 | 1.01 | 14.8 | 2.97 | 10.3 | 1.24 | 1.97 10^5/M | -1.5 10^4cal/mol | – | 56 | -27.3 | > 72 | Stable | Active
4 | CC[C@H](C)[C@H](NC(=O)[C@H](CCCCN)NC(=O)[C@H](CCC(N)=O)NC(=O)[C@H](CCC(=O)O)NC(=O)[C@H](Cc1c[nH]c2ccccc12)NC(C)=O)C(=O)N[C@@H](CCC(=O)O)C(=O)N[C@@H](CCC(=O)O)C(=O)N[C@@H](CC(C)C)C(=O)N[C@@H](CC(C)C)C(=O)N[C@@H](CCCCN)C(=O)N[C@@H](CCCCN)C(=O)N[C@@H](C)C(=O)N[C@@H](CCC(=O)O)C(=O)N[C@@H](CCC(=O)O)C(=O)N[C@@H](CCC(N)=O)C(=O)N[C@@H](CCC(N)=O)C(=O)N[C@@H](CCCCN)C(=O)N[C@@H](CCCCN)C(=O)N[C@@H](CC(N)=O)C(=O)N[C@@H](CCC(=O)O)C(=O)N[C@@H](CCC(=O)O)C(=O)N[C@@H](CCC(=O)O)C(=O)N[C@@H](CC(C)C)C(=O)N[C@@H](CCCCN)C(=O)N[C@@H](CCCCN)C(=O)N[C@@H](CC(C)C)C(=O)N[C@@H](CCC(=O)O)C(=O)N[C@@H](CCCCN)C(=O)N[C@@H](CCCCNC(=O)CCOCCOCCOCCOCCOCCOCCOCCOCCOCCOCCOCCOCCOCCOCCOCCOCCOCCOCCOCCOCCOCCOCCOCCOCCNC(=O)c1ccc(CC2CCN(CCCN(C(=O)C3CCN(C(C)=O)CC3)c3ccc(C)c(Cl)c3)CC2)cc1)C(N)=O (Ac-WEQKIEELLKKAEEQQKKNEEELKKLEKK([PEG24-X1])-NH2) | – | 0.12 | – | – | – | – | – | – | – | – | – | – | – | – | –
5 | Ac-IEELIRAAQEQQRKNEEALREL-NH2 | 3.7 | 4.47 | 275 | > 250 | 63.1 | > 10000 | 76.5 | 8.29 10^5/M | -1 10^4cal/mol | – | – | -6.92 | – | – | –
6 | Ac-WEQKIEELLKKAEEQQKKNEEELKKLEK-NH2 | – | 2.45 | – | – | – | – | – | – | – | – | – | – | – | – | –
7 | enfuvirtide | 2.54 | – | – | – | 48.2 | – | 24.6 | – | – | – | – | – | 45 | – | –
